The values below come from paper PMC8777805, “Interactions of Nereistoxin and Its Analogs with Vertebrate Nicotinic Acetylcholine Receptors and Molluscan ACh Binding Proteins” (Marine Drugs, 2022).

One series has as its target T1, rat brain α4β2 nAChRs (Rattus norvegicus, UniProt P09483+P12390).
T1 construct: from tissue; host or cells: whole rat brain membranes
Nature of the series: [3H]-cytisine displacement, rat brain membranes. It counts as binding. Here is the method:
Rat brain membranes (100 μg of protein) expressing […] α4β2 nAChRs were incubated with 0.5 nM [^3H]-cytisine in a final volume of 500 µL binding saline for 4 h at 5 °C. […] Ten different concentrations of the experimental compound were usually tested in quadruplicate. Nonspecific binding was measured in the presence of 1 mM (S)-nicotine hydrogen tartrate (Sigma-Aldrich). Data were fitted using GraphPad Prism software (Version 4 GraphPad Software, San Diego, CA, USA) by nonlinear regression analyses to a sigmoidal one-site model with variable slope.

The target in a further series is T2, rat brain α7 nAChR (Rattus norvegicus, UniProt Q05941).
T2 construct: from tissue; host or cells: whole rat brain membranes
Nature of the series: [125I]-α-BTX displacement, rat brain membranes. It counts as binding.

For series [1], the target named is T3, Torpedo electric organ muscle type nAChR (Tetronarce californica, UniProt P02710+P02714+P02718).
T3 construct: from tissue; host or cells: Torpedo californica electric organ washed membranes
Nature of the series: [125I]-α-BTX displacement, Torpedo electric organ membranes. It counts as binding.

For another series, the target named is T4, Lymnaea stagnalis AChBP (Lymnaea stagnalis, UniProt P58154).
T4 construct: made in house
Nature of the series: [3H]-epibatidine scintillation proximity binding assay, Ls AChBP. To be noted: inhibition of [3H]-epibatidine binding; read-out: IC50 ± SEM, Ls BP. The protocol:
(§1) The AChBP proteins were expressed and purified according to Hansen et al.. Determination of compound affinity for an AChBP utilized a modification of the Scintillation Proximity Assay reported previously. Briefly, the AChBP constructs (0.5–1.0 nM final concentration of binding sites) were combined with polyvinyltoluene anti-mouse SPA scintillation beads (0.17 mg/mL final concentration, Perkin Elmer), monoclonal anti-FLAG M2 antibody from mouse 1:8000 dilution (Sigma), and 0.1 M NaPO4 buffer, pH 7.0. This cocktail was distributed to a 96-well plate and incubated with either vehicle (total binding), unknown sample (10 µM final concentration), or a saturating concentration (10 µM) of the known competitive ligand methyllycaconitine to determine the nonspecific binding. The radioligand (±)-[^3H]-epibatidine (Perkin Elmer, 5 nM final concentration) was added to each well with varying the concentrations of competing ligand and allowed to incubate at room temperature for 1 hr. Plates were read on a 1450 MicroBeta TriLux liquid scintillation counter (Wallac) and the output normalized. All measurements were conducted in duplicate a minimum of 3 times. The IC50 values were calculated using GraphPad Prism version 4.02 (GraphPad Software, 2006, San Diego, CA, USA, www.graphpad.com).
For orientation: Scintillation proximity formats need no separation of bound from free tracer.

For series [2], the target named is T5, Aplysia californica AChBP (Aplysia californica, UniProt Q8WSF8).
T5 construct: made in house
Nature of the series: [3H]-epibatidine scintillation proximity binding assay, Ac AChBP. To be noted: for IC50: inhibition of [3H]-epibatidine binding, read-out: IC50 ± SEM, Ac BP. Here is the method:
as §1

Series [3] deals with T6, A. californica BP Y55W mutant (Aplysia californica, UniProt Q8WSF8, Y72W).
T6 construct: made in house
Nature of the series: [3H]-epibatidine scintillation proximity binding assay, Ac AChBP Y55W mutant. To be noted: inhibition of [3H]-epibatidine binding; read-out: IC50 ± SEM, Ac BP Y55W. The protocol:
as §1

The target in series [4] is T7, L. stagnalis AChBP C187S mutant (Lymnaea stagnalis, UniProt P58154, C206S).
T7 construct: made in house
Nature of the series: [3H]-epibatidine scintillation proximity binding assay, Ls AChBP C187S mutant. To be noted: for IC50: inhibition of [3H]-epibatidine binding. Here is the method: as §1

Series [5] has as its target T8, human α4β2 nAChRs expressed in TsA201 cells (Homo sapiens, UniProt P17787+P43681).
T8 construct: expressed in transfected cells; host or cells: TsA201 cells
Nature of the series: FlexStation membrane potential functional assay. It counts as cell-based. The conditions noted are these: for activation (membrane depolarization) of human α4β2 nAChRs: MeNTX up to 300 µM, relative to 5 µM ACh; for inhibition of ACh activation of human α4β2 nAChRs: response to 5 μM acetylcholine. The protocol:
TsA201 cells expressing human α4β2 were maintained in media consisting of Dulbecco’s Modified Eagle medium supplemented with 10% FBS, 100 units/mL penicillin and 100 μg/mL streptomycin, 2 mM L-glutamine, 0.5 mg/mL zeocin, and 0.6 mg/mL geneticin. Cells were grown in 75 cm^2 culture flasks, which were housed in a humidified incubator (Fisher Scientific, Atlanta, GA, USA at 37 °C in an atmosphere of 5% CO2. They were grown to around 80–90% confluence after harvesting with 0.25% trypsin and being split weekly at a subcultivation ratio of between 1:6 and 1:10.
Our experimental protocol was based on the initial study of Fitch et al.. Cells were seeded at a density of roughly 5 × 10^4 to 10^5 cells/well in 96-well flat-bottom black wall culture plates coated with 50 μg /mL poly-D-lysine hydrobromide (Sigma-Aldrich, 70–150 kDa) and grown overnight in 100 μL culture medium. A proprietary membrane potential dye obtained from Molecular Devices (San Diego, CA, USA) was prepared by dissolving one bottle of dye into 30 mL of Hanks Saline (pH = 7.4) containing 20 mM HEPES buffer. The cells were incubated with 100 μL of dye for 30 min at 37 °C prior to the robotically controlled concentration-response experiment. Serial dilutions of a compound for dose-response analysis were prepared in 96-well plates by evaporation of a methanolic stock solution and then reconstituted in the appropriate volume of Hanks saline. Fluid transfer and readings were performed by a FlexStation fluorimeter (Molecular Devices). Excitation and emission wavelengths were set to 530 nm and 565 nm with a cutoff of 550 nm. The first 17 s were used as a basal reading.

Series [6] concerns phencyclidine binding site of Torpedo nAChR ion channel. Nature of the series: [3H]-TCP binding to Torpedo membranes. To be noted: results not shown. From the text:
We have not yet deciphered the mechanism by which this small molecule can be an nAChR antagonist. […] We did observe that NTX inhibited [^3H]-TCP (radiolabelled analog of phencyclidine) binding to the Torpedo membranes, but this only occurred at NTX concentrations that were ~10X higher than were required to inhibit α-BTX binding (results not shown). Since most competitive antagonists are relatively large rigid molecules, elucidating the molecular mechanism by which NTX, an extremely small molecule, acts as an nAChR antagonist merits further investigation.

Another series relates to molluscan AChBPs. Nature of the series: Preincubation with toxin before [3H]-epibatidine addition, AChBPs. It counts as binding. Here is the method:
as §1

On the set-up of series [7]: method as in earlier work. The conditions noted are these: cited from earlier work.
Where [8] appears, read: rat brain membranes, [3H]-cytisine displacement, mean of n experiments, read-out: IC50 ± SEM, α4β2.
[9] abbreviates: rat brain membranes, [125I]-α-BTX displacement, mean of n experiments, read-out: IC50 ± SEM, α7.
Where [10] appears, read: [125I]-α-BTX displacement, mean of n experiments, read-out: IC50 ± SEM, Torpedo electric organ.
[11] abbreviates: single [3H]-cytisine displacement experiment.
[12] abbreviates: single [3H]-cytisine displacement experiment, read-out: α4β2 IC50 (individual experiment, Figure 3).
[13] abbreviates: single [125I]-αBTX displacement experiment.
Setting [14] is: single [125I]-αBTX displacement experiment, read-out: α7 IC50 (representative experiment, Figure 6).
The mark [15] stands for this setting: Torpedo IC50 (single experiment, Figure 7 left), 30 min preincubation before BTX.

Where two headings read alike, the source gives them in different places.

Usually IC50 stands for the point on the concentration scale where inhibition reaches its midpoint. As to `C[N+](C)(C)C1CSCSC1` [TMA-DT, 5-trimethylamino-1,3-dithiane], the IC50 at rat brain α4β2 nAChRs (setting [8]) stood at 290 ± 60 µM; at rat brain α7 nAChR (setting [9]), 90 ± 4.3 µM; in series [1] (setting [10]), 150 µM; at Lymnaea stagnalis AChBP it was 3.7 ± 0.39 µM; in [2], 20 ± 2 µM; in series [3] it was 18 ± 2.8 µM.

For the compound `CN(C)C1CSCSC1` [DMA-DT, 5-dimethylamino-1,3-dithiane], the half-maximal inhibitory concentration (IC50) is 160 ± 96 µM at rat brain α4β2 nAChRs (setting [8]); 640 ± 220 µM at rat brain α7 nAChR (setting [9]); more than 500 µM in series [1] (setting [10]); 22 ± 2.4 µM on Lymnaea stagnalis AChBP; 28 ± 0.27 µM in series [2]; 41.4 ± 4.4 µM in series [3].

On to `CN(C)C1CSSC1` [NTX, 4-dimethylamino-1,2-dithiolane, reference compound], for which the IC50 turned out to be 60 ± 22 µM on rat brain α4β2 nAChRs (setting [8]); 81.6 µM on rat brain α4β2 nAChRs (setting [12]); 390 ± 8.6 µM at rat brain α7 nAChR (setting [9]); 826 µM at rat brain α7 nAChR (setting [14]); 254 µM in series [1] (setting [15]); 230 ± 71 µM in [1] (setting [10]). Also, the IC50 on Lymnaea stagnalis AChBP stood at 140 ± 24 µM; in [2] it was 71 ± 1.9 µM; in series [3] it was 110 ± 25 µM; in series [4] it was 160 µM. In addition, the “α4β2 Hillslope (individual experiment, Figure 3)” value on rat brain α4β2 nAChRs (setting [11]) is listed as -1.5. In addition, on rat brain α7 nAChR (setting [13]), the “α7 Hillslope (representative experiment, Figure 6)” value is given as -2.6. Besides, in [5], the “activation (membrane depolarization) of human α4β2 nAChRs” value is “no measurable depolarizing activity”. Further, the “inhibition of ACh activation of human α4β2 nAChRs” value in series [5] was “inhibited ACh activation”. Moreover, the “NTX concentrations inhibiting [3H]-TCP binding, higher than required to inhibit α-BTX binding” value in series [6] was ~ 10 X. For the same compound, the “effect of 24 hr preincubation on inhibition of [3H]-epibatidine binding” value with molluscan AChBPs is recorded as “failed to detect any effect”. The “dimethylamino pKa” value in series [7] was 7.2.

Regarding `C[N+](C)(C)C1CSSC1` [MeNTX, N-methylnereistoxin], the IC50 is 120 ± 13 µM on rat brain α4β2 nAChRs (setting [8]); 121 µM on rat brain α4β2 nAChRs (setting [12]); 45 ± 2.3 µM at rat brain α7 nAChR (setting [9]); 89.4 µM on rat brain α7 nAChR (setting [14]); 11.2 µM in [1] (setting [15]); 9.3 ± 4.9 µM in series [1] (setting [10]). The half-maximal inhibitory concentration (IC50) on Lymnaea stagnalis AChBP is 163 ± 8.7 µM; in series [2] it was 260 ± 71 µM; in series [3], 74 ± 5.2 µM; in series [4] it was 41 µM. Besides, the “α4β2 Hillslope (individual experiment, Figure 3)” value on rat brain α4β2 nAChRs (setting [11]) was -1.5. For the same compound, the “α7 Hillslope (representative experiment, Figure 6)” value on rat brain α7 nAChR (setting [13]) was -1.0. In [2] (MeNTX versus NTX), the “affinity of Aplysia californica AChBP less than for NTX” value is given as ~ 3.5 fold. The “affinity of Ls C187S mutant greater than for NTX” value in [4] (MeNTX versus NTX) is recorded as ~ 4 fold. Further, the “activation (membrane depolarization) of human α4β2 nAChRs” value in series [5] was “failed to activate”. Further, in [5], the “inhibition of ACh activation of human α4β2 nAChRs” value is listed as “inhibited ACh activation”. Further, in the series on molluscan AChBPs, the “effect of 24 hr preincubation on inhibition of [3H]-epibatidine binding” value was “failed to detect any effect”.
